Laboratory results as given in US7893077B2, “Bisaryl-sulfonamides” (Amgen Inc., priority 2004, dated 2011).

Molecular target: T1, PPARγ (Homo sapiens, UniProt P37231)
T1 construct: made in house
T1 sequence (P37231 1-505): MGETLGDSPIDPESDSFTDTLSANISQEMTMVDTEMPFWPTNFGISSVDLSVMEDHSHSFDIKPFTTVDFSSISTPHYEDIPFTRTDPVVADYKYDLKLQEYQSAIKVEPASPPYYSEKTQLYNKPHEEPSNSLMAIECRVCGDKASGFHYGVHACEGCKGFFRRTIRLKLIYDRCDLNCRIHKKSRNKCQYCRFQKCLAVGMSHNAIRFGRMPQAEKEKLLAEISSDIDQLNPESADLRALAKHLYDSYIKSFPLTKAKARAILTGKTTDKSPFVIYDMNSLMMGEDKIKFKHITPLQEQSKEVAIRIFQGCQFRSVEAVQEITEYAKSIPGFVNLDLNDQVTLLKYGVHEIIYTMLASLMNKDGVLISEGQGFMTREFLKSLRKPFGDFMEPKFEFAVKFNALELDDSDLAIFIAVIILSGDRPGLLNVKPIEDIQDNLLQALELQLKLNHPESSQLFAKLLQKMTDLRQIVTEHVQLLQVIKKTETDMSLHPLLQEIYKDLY
Experiment: PPARγ ligand binding assay utilizing [3H]-BRL 49653 as the radioligand (filtration)
Conditions: concentration required to reduce by 50% the specific binding of [3H]-BRL 49653
Excerpt: The compounds of the present invention can be evaluated for modulation of the PPARγ receptor using assays such as those described in Jiang, et al., Nature 391:82-86 (1998), Ricote, et al., Nature 391:79-82 (1998) and Lehmann, et al., J. Biol. Chem. 270(12): 12953-12956 (1995). Alternatively, the compounds can be evaluated for their ability to displace radiolabeled BRL 49653 from a PPARγ-GST fusion protein as follows:
PPARγ-GST fusion protein (prepared according to standard procedures), [^3H]-BRL 49653 having 50 Ci/mmol specific activity, Polyfiltronics Unifilter 350 filtration plate and glutathione-Sepharose® beads (from Pharmacia: washed twice with 10× binding buffer in which BSA and DTI can be left out).
Binding buffer (10 mM Tris-HCl, pH 8.0, 50 mM KCl, 10 mM DTT, 0.02% BSA and 0.0 1% NP-40) is added in 80-μL amounts to the wells of the filtration plate. The test compound is then added in 10 μL of DMSO. The PPARγ-GST fusion protein and radiolabeled BRL compound are premixed in binding buffer containing 10 mM DTT and added in 10-μL amounts to the wells of the plate to provide final concentrations of 1 µg/well of PPARγ-GST fusion protein and 10 nM [^3H]-BRL 49653 compound. The plate is incubated for 15 min. Glutathione-agarose bead is added in 50 μL of binding buffer, and the plate is vigorously shaken for one hour. The plate is washed four times with 200 μL/well of binding buffer (without BSA and DTT). The bottom of the plate is sealed and 200 μL/well of scintillation cocktail is added. The top of the plate is then sealed and the radioactivity is determined.
IC50 values are defined as the concentration of test compounds required to reduce by 50% the specific binding of [^3H]-BRL 49653 and are represented by (+)<30 μM; (++)<10 μM; (+++)<1 μM.

Structure (SMILES)	IC50 [nM]
CCCNc1nc(NS(=O)(=O)c2ccc(Cl)cc2Cl)ncc1Sc1ccc(S(=O)(=O)N2CCCCC2)cc1 [Compound 12, 2,4-Dichloro-N-{5-[4-(piperidine-1-sulfonyl)-phenylsulfanyl]-4-propylamino-pyrimidin-2-yl}-benzenesulfonamide]	< 1000
CCNc1nc(NS(=O)(=O)c2ccc(Cl)cc2Cl)ncc1Sc1ccc(S(=O)(=O)N2CCCCC2)cc1 [Compound 13, 2,4-Dichloro-N-{4-ethylamino-5-[4-(piperidine-1-sulfonyl) -phenylsulfanyl]-pyrimidin-2-yl}-benzenesulfonamide]	< 1000
CCCCNc1nc(NS(=O)(=O)c2ccc(Cl)cc2Cl)ncc1Sc1ccc(S(=O)(=O)N2CCCCC2)cc1 [Compound 14, N-{4-Butylamino-5-[4-(piperidine-1-sulfonyl)-phenylsulfanyl]-pyrimidin-2-yl}-2,4-dichloro-benzenesulfonamide]	< 1000
CCCN(C)c1nc(NS(=O)(=O)c2ccc(Cl)cc2Cl)ncc1Sc1ccc(S(=O)(=O)N2CCCCC2)cc1 [Compound 15, 2,4-Dichloro-N-{4-(methyl-propyl-amino)-5-[4-(piperidine-1-sulfonyl)-phenylsulfanyl]-pyrimidin-2-yl}-benzenesulfonamide]	< 1000
COCCNc1nc(NS(=O)(=O)c2ccc(Cl)cc2Cl)ncc1Sc1ccc(S(=O)(=O)N2CCCCC2)cc1 [Compound 16, 2,4-Dichloro-N-{4-(2-methoxy-ethylamino)-5-[4-(piperidine-1-sulfonyl)-phenylsulfanyl]-pyrimidin-2-yl}-benzenesulfonamide]	< 1000
CC(C)Nc1nc(NS(=O)(=O)c2ccc(Cl)cc2Cl)ncc1Sc1ccc(S(=O)(=O)N2CCCCC2)cc1 [Compound 17, 2,4-Dichloro-N-{4-isopropylamino-5-[4-(piperidine-1-sulfonyl)-phenylsulfanyl]-pyrimidin-2-yl}-benzenesulfonamide]	< 10000
CCC(CC)Nc1nc(NS(=O)(=O)c2ccc(Cl)cc2Cl)ncc1Sc1ccc(S(=O)(=O)N2CCCCC2)cc1 [Compound 18, 2,4-Dichloro-N-{4-(1-ethyl-propylamino)-5-[4-(piperidine-1-sulfonyl)-phenylsulfanyl]-pyrimidin-2-yl}-benzenesulfonamide]	< 30000
O=S(=O)(Nc1ncc(Sc2ccc(S(=O)(=O)N3CCCCC3)cc2)c(NCC2CC2)n1)c1ccc(Cl)cc1Cl [Compound 19, 2,4-Dichloro-N-{4-(cyclopropylmethyl-amino)-5-[4-(piperidine-1-sulfonyl)-phenylsulfanyl]-pyrimidin-2-yl}-benzenesulfonamide]	< 1000
CC(C)CNc1nc(NS(=O)(=O)c2ccc(Cl)cc2Cl)ncc1Sc1ccc(S(=O)(=O)N2CCCCC2)cc1 [Compound 20, 2,4-Dichloro-N-{4-isobutylamino-5-[4-(piperidine-1-sulfonyl)-phenylsulfanyl]-pyrimidin-2-yl}-benzenesulfonamide]	< 1000
CC(C)CCNc1nc(NS(=O)(=O)c2ccc(Cl)cc2Cl)ncc1Sc1ccc(S(=O)(=O)N2CCCCC2)cc1 [Compound 21, 2,4-Dichloro-N-{4-(3-methyl-butylamino)-5-[4-(piperidine-1-sulfonyl)-phenylsulfanyl]-pyrimidin-2-yl}-benzenesulfonamide]	< 10000
CCCNc1nc(NS(=O)(=O)c2ccc(Cl)cc2)ncc1Sc1ccc(S(=O)(=O)N2CCCCC2)cc1 [Compound 22, 4-Chloro-N-{5-[4-(piperidine-1-sulfonyl)-phenylsulfanyl]-4-propylamino-pyrimidin-2-yl}-benzenesulfonamide]	< 1000
CCCNc1nc(NS(=O)(=O)c2ccc(OC)cc2)ncc1Sc1ccc(S(=O)(=O)N2CCCCC2)cc1 [Compound 23, 4-Methoxy-N-{5-[4-(piperidine-1-sulfonyl)-phenylsulfanyl]-4-propylamino-pyrimidin-2-yl}-benzenesulfonamide]	< 10000
CCCNc1nc(NS(=O)(=O)c2ccc(Cl)cc2)ncc1Oc1ccc(S(=O)(=O)N2CCOCC2)cc1 [Compound 24, 4-Chloro-N-{5-[4-(morpholine-4-sulfonyl)-phenoxy]-4-propylamino-pyrimidin-2-yl}-benzenesulfonamide]	< 10000
CNc1nc(NS(=O)(=O)c2ccc(Cl)cc2Cl)ncc1Sc1ccc2ccccc2c1 [Compound 25, 2,4-Dichloro-N-[4-methylamino-5-(naphthalen-2-ylsulfanyl) -pyrimidin-2-yl]-benzenesulfonamide]	< 30000
CN(C)c1nc(NS(=O)(=O)c2ccc(Cl)cc2Cl)ncc1Sc1ccc2ccccc2c1 [Compound 26, 2,4-Dichloro-N-[4-dimethylamino-5-(naphthalen-2-ylsulfanyl) -pyrimidin-2-yl]-benzenesulfonamide]	< 30000
CCCNc1nc(NS(=O)(=O)c2ccc(Cl)cc2Cl)ncc1Oc1ccc(Cl)c(Cl)c1 [Compound 27, 2,4-Dichloro-N-[5-(3,4-dichloro-phenoxy)-4-propylamino-pyrimidin-2-yl]-benzenesulfonamide]	< 10000
CCCOc1nc(NS(=O)(=O)c2ccc(Cl)cc2Cl)ncc1Sc1ccc(S(=O)(=O)N2CCCCC2)cc1 [Compound 28, 2,4-Dichloro-N-{5-[4-(piperidine-1-sulfonyl)-phenylsulfanyl]-4-propoxy-pyrimidin-2-yl}-benzenesulfonamide]	< 1000
CCCOc1nc(NS(=O)(=O)c2ccc(Cl)cc2)ncc1Oc1ccc(S(=O)(=O)N2CCOCC2)cc1 [Compound 29, 4-Chloro-N-{5-[4-(morpholine-4-sulfonyl)-phenoxy]-4-propoxy-pyrimidin-2-yl}-benzenesulfonamide]	< 10000
COc1nc(NS(=O)(=O)c2ccc(Cl)cc2Cl)ncc1Sc1ccc2ccccc2c1 [Compound 30, 2,4-Dichloro-N-[4-methoxy-5-(naphthalen-2-ylsulfanyl)-pyrimidin-2-yl]-benzenesulfonamide]	< 10000
CCCOc1nc(NS(=O)(=O)c2ccc(Cl)cc2Cl)ncc1Oc1ccc(Cl)c(Cl)c1 [Compound 31, 2,4-Dichloro-N-[5-(3,4-dichloro-phenoxy)-4-propoxy-pyrimidin-2-yl]-benzenesulfonamide]	< 10000
CCCSc1nc(NS(=O)(=O)c2ccc(Cl)cc2Cl)ncc1Sc1ccc(S(=O)(=O)N2CCCCC2)cc1 [Compound 32, 2,4-Dichloro-N-{5-[4-(piperidine-1-sulfonyl)-phenylsulfanyl]-4-propylsulfanyl-pyrimidin-2-yl}-benzenesulfonamide]	< 1000
CCCCc1nc(NS(=O)(=O)c2ccc(Cl)cc2Cl)ncc1Sc1ccc(S(=O)(=O)N2CCCCC2)cc1 [Compound 43, N-{4-Butyl-5-[4-(piperidine-1-sulfonyl)-phenylsulfanyl]-pyrimidin-2-yl}-2,4-dichloro-benzenesulfonamide]	< 1000
CCCCc1nc(NS(=O)(=O)c2ccc(Cl)cc2)ncc1Sc1ccc(S(=O)(=O)N2CCCCC2)cc1 [Compound 44, N-{4-Butyl-5-[4-(piperidine-1-sulfonyl)-phenylsulfanyl]-pyrimidin-2-yl}-4-chloro-benzenesulfonamide]	< 1000
CCCCc1nc(NS(=O)(=O)c2ccc(OC)cc2)ncc1Sc1ccc(S(=O)(=O)N2CCCCC2)cc1 [Compound 45, N-{4-Butyl-5-[4-(piperidine-1-sulfonyl)-phenylsulfanyl]-pyrimidin-2-yl}-4-methoxy-benzenesulfonamide]	< 1000
CCCCc1nc(NS(=O)(=O)c2ccc(C(F)(F)F)cc2Cl)ncc1Sc1ccc(S(=O)(=O)N2CCCCC2)cc1 [Compound 46, N-{4-Butyl-5-[4-(piperidine-1-sulfonyl)-phenylsulfanyl]-pyrimidin-2-yl}-2-chloro-4-trifluoromethyl-benzenesulfonamide]	< 1000
CCCCCc1nc(NS(=O)(=O)c2ccc(Cl)cc2Cl)ncc1Sc1ccc(S(=O)(=O)N2CCCCC2)cc1 [Compound 47, 2,4-Dichloro-N-{4-pentyl-5-[4-(piperidine-1-sulfonyl) -phenylsulfanyl]-pyrimidin-2-yl}-benzenesulfonamide]	< 1000
